Results: patent US8481001B2, “Combination therapies comprising quinoxaline inhibitors of P13K-alpha for use in the treatment of cancer” (Exelixis, Inc., priority 2007, dated 2013)

Legend:
[1] = system: A549 human lung carcinoma cells; assay: A549 non-small cell lung cancer xenograft model; assay type: in vivo
Method: A transponder was implanted in each mouse for identification, and animals were monitored daily for clinical symptoms and survival. Body weights were recorded daily.
Compound A was tested both as a single agent and in combination with Compound B. The A549 human non-small cell lung carcinoma cell line harbors a homozygous stop mutation in the gene encoding LKB1, and an activating G12S mutation in K-Ras, promoting activation of both PI3K and mTOR. A549 cells also express wild-type EGFR.
As a single agent, Compound B, an inhibitor of EGFR, was orally administered once-daily at 30 mg/kg and Compound A was orally administered either at 30 mg/kg qd or 100 mg/kg q2d. Combination therapies consisted of Compound B with Compound A at 30 mg/kg or 100 mg/kg. Administration of each agent in the combination groups was separated by 6 h.

[2] = system: MCF7 human mammary adenocarcinoma cells; assay: MCF7 breast cancer xenograft model (Study 1 and Study 2); assay type: in vivo; conditions: Compound B 30 mg/kg qd, single agent
Method: On day 0, cells were harvested by trypsinization, and 5×10^6 cells (passage 10 and 95.4% viability for Study 1, passage 9 and 90% viability for Study 2) in 100 μL of a solution made of 50% cold Hanks balanced salt solution with 50% growth factor reduced matrigel (R&D Systems for Study 1 and Becton Dickinson for Study 2) implanted subcutaneously into the hindflank of female nude mice.
Compound A was tested both as a single agent and in combination with Compound B, an EGFR inhibitor, in a breast tumor model. The MCF7 human breast carcinoma cell line harbors a heterozygous, activating mutation in PI3K (PI3KCA/E545K) and expresses wild-type EGFR.
Compound B was administered orally once-daily (qd) at 30 mg/kg, and Compound A was administered once-daily at 30 mg/kg or once every other day (q2d) at 100 mg/kg. Combination therapies consisted of Compound B together with Compound A at 30 mg/kg qd or 100 mg/kg q2d.

[3] = system: Calu-6 human lung anaplastic carcinoma cells; assay: Calu-6 non-small cell lung cancer xenograft model; assay type: in vivo; conditions: carboplatin 50 mg/kg i.v. q4d, single agent; FIG. 3
Method: On day 0, cells were harvested by trypsinization, and 5×10^6 cells (passage #8, 96% viability) in 0.1 mL ice-cold Hank's balanced salt solution were implanted intradermally in the hind-flank of 5-8 week old female athymic nude mice. A transponder was implanted in each mouse for identification, and animals were monitored daily for clinical symptoms and survival. Body weights were recorded daily.
Calu-6 is a human NSCLC cell line that harbors a heterozygous activating mutation in K-Ras (Q61K).

[4] = system: MDA-MB-468 human breast adenocarcinoma cells
Description: (§1) MDA-MB-468 is a human breast carcinoma cell line that has an increase in the copy number of the EGFR gene and a homozygous deletion of PTEN.

MDA-MB-468 cells = conditions: in vitro treatment of MDA-MB-468 cells
Description: as §1

[5] = system: PC-3 human prostate adenocarcinoma cells; assay type: in vivo; conditions: taxol 7.5 mg/kg i.v. twice weekly, single agent; FIG. 1
Method: Female and male athymic nude mice (NCr) 5-8 weeks of age and weighing approximately 20-25 g were used in the following model. Prior to initiation of a study, the animals were allowed to acclimate for a minimum of 48 h. During these studies, animals were provided food and water ad libitum and housed in a room conditioned at 70-75° F. and 60% relative humidity. A12 h light and 12 h dark cycle was maintained with automatic timers. All animals were examined daily for compound-induced or tumor-related deaths.
PC-3 human prostate adenocarcinoma cells were cultured in vitro in DMEM (Mediatech) supplemented with 20% Fetal Bovine Serum (Hyclone), Penicillin-Streptomycin and non-essential amino acids at 37° C. in a humidified 5% CO2 atmosphere. […] A transponder was implanted in each mouse for identification, and animals were monitored daily for clinical symptoms and survival. Body weights were recorded daily.
For subcutaneous or intradermal tumors, the mean tumor weight of each animal in the respective control and treatment groups was determined twice weekly during the study. […] Percent inhibition of tumor growth (TGI) is determined with the following formula: […]
[formula] Tumor size is calculated individually for each tumor to obtain a mean±SEM value for each experimental group. Statistical significance is determined using the 2-tailed Student's t-test (significance defined as P<0.05).

[6] = Compound B 30 mg/kg qd, single agent

For `COc1cc2c(Nc3ccc(Cl)c(Cl)c3F)ncnc2cc1OC[C@@H]1C[C@@H]2CN(C)C[C@@H]2C1` [Compound B, N-(3,4-dichloro-2-fluorophenyl)-7-({[(3aR,5r,6aS)-2-methyloctahydrocyclopenta-[c]pyrrol-5-yl]methyl}oxy)-6-(methyloxy)quinazolin-4-amine], the body weight loss [1, 6] was 1.5-6.9%, the dose omission [1, 6] was “no dose omission” and the tolerability [1, 6] was “generally well tolerated”. The tumor growth inhibition ([1]; Compound B oral 30 mg/kg once-daily for 18 days, single agent) was 80%, the “tolerability (summary)” value ([1]; single agent administration) was “well tolerated with minimal dose skipping” and the tolerability [2] was “generally well tolerated”.

For `N.N.O=C([O-])C1(C(=O)[O-])CCC1.[Pt+2]` [carboplatin], the tumor growth inhibition [3] was “Significant tumor growth inhibition”.

For `C#Cc1cccc(Nc2ncnc3cc(OCCOC)c(OCCOC)cc23)c1` [erlotinib], the tumor growth inhibition ([4]; erlotinib oral 100 mg/kg qd, single agent, FIG. 5) was “significant but incomplete tumor growth inhibition”, the “rate of body weight gain” value ([4]; mouse, in vivo) was “apparent decrease in their rate of body weight gain” and the PI3K pathway (MDA-MB-468 cells) was “fails to downregulate the PI3K pathway”.

For `CC(=O)O[C@H]1C(=O)[C@@]2(C)[C@H]([C@H](OC(=O)c3ccccc3)[C@]3(O)C[C@H](OC(=O)[C@H](O)[C@@H](NC(=O)c4ccccc4)c4ccccc4)C(C)=C1C3(C)C)[C@]1(OC(C)=O)CO[C@@H]1C[C@@H]2O` [taxol, Paclitaxel], the tumor growth inhibition [5] was “Comparable tumor growth inhibition”.
